Laboratory results from patent US20260274836A1, “NOVEL HEPATOSELECTIVE POLYADENYLATING POLYMERASES INHIBITORS AND THEIR METHOD OF USE” (Baruch S. Blumberg Institute, priority 2022, published 2026).

Legend:
[1] = Pharmacokinetics after oral gavage (PO) administration, plasma; assay type: in vivo, CD1 mice; set-up: AUClast/D: unit not given here; conditions: 8 mg/kg oral; for Concentration (ng/mL), plasma: individual animals
Description: Protocol for pharmacokinetic and tissue distribution studies. The pharmacokinetics of the compounds was studied in CD1 mice after intravenous (IV) and oral gavage (PO) administration. Mouse PK studies was conducted at 3 mg/kg (IV) and 8 mg/kg (PO). Plasma samples obtained from dosed animals, at ten time points, including 5, 15 and 30 minutes and 1, 1.5, 2, 4, 6, 8 and 24 hr post-dose for processing to plasma, were prepared for analysis by means of a single step protein precipitation technique, by adding 200 μL of acetonitrile containing an IS mixture (labetalol, imipramine and diclofenac) to 50 μL aliquots of individual subject samples. Samples were mixed by vortex for homogeneity and then subjected to centrifugation at 4000 rpm for 10 min. The supernatant (200 μL) was collected and injected into the LC-MS/MS for analysis. Pharmacokinetic parameters will be calculated using established non-compartmental methods. The liver distribution of the compounds was studied in the PO group and liver tissues were collected at each time point after PO administration. Accurately weighed whole liver tissues were collected in a 50 mL tube, and 3 volumes per weight of water will be added. Tissue samples were homogenized and 50 μL of the homogenates will be processed along with plasma samples as described above.

[2] = in vitro; assay type: cell-based; conditions: human
Description: Assays for the anti-HAV activity of the hepatoselective DHQ compounds were carried out in Huh-7 human hepatoma cells using the 18f-NLuc reporter virus, which expresses nanoluciferase (NLuc) from sequence inserted into the polyprotein coding region of the HM175/18f HAV genome between the VP1pX and 2B coding sequences (Yamane et al., 2019). The method was modified minimally from that described by Misumi et al. for iminosugar compounds (Misumi et al., 2021). Cells (approximately […]) were plated in wells of a 96-well plate with Dulbecco's modified Eagle medium (DMEM) and 10% fetal bovine serum. The cells were inoculated 24 hrs later with 18f-NLuc virus (approximately 10^6-10^7 genome equivalents) in medium containing increasing concentrations of the compounds of interest. […] Luminescence was measured using a Biotek Synergy II multi-mode plate reader (BioTek Instruments). […] Cell toxicity of the compounds was assessed using the WST-1 Cell Proliferation Reagent (Sigma-Aldrich) at the end of the treatment period in parallel cultures of uninfected cells, with WST-1 reagent added to cultures for 1 hr prior to harvest and O.D. reading.
Additional exemplary compounds of the present invention are evaluated for anti-HAV activity in accordance with certain assays described hereinabove. […] Luminescence was measured using a Biotek Synergy II multi-mode plate reader (BioTek Instruments). […]

For `COc1cc2c(cc1OCCCCCCC(=O)O)C[C@@H](C(C)C)n1cc(C(=O)O)c(=O)cc1-2` [Example 6, (S)-9-((6-carboxyhexyl)oxy)-6-isopropyl-10-methoxy-2-oxo-6,7-dihydro-2H-pyrido[2,1-a]isoquinoline-3-carboxylic acid], the AUClast/D ([1]; mean) was 4.33, the F ([1]; mean) was 5.09% and the “Concentration (ng/mL), plasma” value ([1]; 8 h) was “BLOQ”. For the same compound, the “Concentration (ng/mL), plasma” value ([1]; 24 h) was “BLOQ” and the CC50 at 48 h [2] was > 10 µM.
